This passage reports IC50 results from patent publication US20260159500A1, “KINESIN KIF18A INHIBITOR AND USE THEREOF” (SHANGHAI APEIRON THERAPEUTICS COMPANY LIMITED, priority 2022, published 2026).

Structures are written as SMILES. pIC50: −log10 of the molar value.

In assay [1] the target is T1, Human KIF18A (amino acid sequence 1-417) (Homo sapiens, UniProt Q8NI77).
T1 construct: purchased Viva Biotech (Shanghai) Ltd
T1 sequence (Q8NI77 1-417): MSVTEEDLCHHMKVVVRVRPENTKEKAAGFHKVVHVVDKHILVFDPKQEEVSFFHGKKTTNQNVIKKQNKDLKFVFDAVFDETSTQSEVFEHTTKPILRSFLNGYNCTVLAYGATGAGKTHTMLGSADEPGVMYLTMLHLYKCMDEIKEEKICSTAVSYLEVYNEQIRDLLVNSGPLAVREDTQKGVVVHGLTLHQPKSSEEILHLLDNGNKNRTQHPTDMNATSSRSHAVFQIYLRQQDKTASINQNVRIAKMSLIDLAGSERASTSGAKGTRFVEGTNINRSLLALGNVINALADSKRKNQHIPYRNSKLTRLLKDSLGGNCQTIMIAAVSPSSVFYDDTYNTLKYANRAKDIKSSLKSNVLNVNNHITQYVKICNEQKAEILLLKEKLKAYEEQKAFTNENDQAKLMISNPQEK
The assay can be described thus: Enzymatic activity test (ADP-Glo, microtubule-stimulated KIF18A ATPase). It is filed as biochemical. Conditions: 60 μg/mL microtubules, 25 μM ATP, 2.5 nM KIF18A protein, 120 min at ambient temperature, read-out: KIF18A_nM. An outline of the steps: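 Microtubule-stimulated ATPase of KIF18A(1-417) run with 60 μg/mL microtubules, 25 μM ATP and 2.5 nM enzyme, compounds at 0-10 μM final, 120 min at ambient temperature. ADP formed was read by ADP-Glo chemiluminescence after two 30-min reagent incubations.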
Background: ADP-Glo turns the ADP formed in a reaction into a luminescent signal.

The subject of a further assay is OVCAR3 cells. The assay is described as follows: Cell proliferation activity test in OVCAR3 cells (CyQUANT Direct). In kind it is cell-based. Conditions: Homo sapiens, OVCAR-3, 72 h, 3 days incubation, CyQUANT fluorescence detection, read-out: OVCAR-3_IC50_nM. A digest of the protocol:
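Log-phase cells in RPMI-1640 with 10% FBS were seeded overnight, then exposed to compound at final 0–10 μM (0.2% DMSO) for 3 days at 37 °C, 5% CO2. Proliferation was read by CyQUANT Direct fluorescence after 60 min at 37 °C.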

Another assay concerns HT29 cells. The assay can be described thus: CyQuant cell proliferation activity test in HT29 cells. It is filed as cell-based. Conditions: Homo sapiens, HT-29, 72 h, 2000 cells per well, 3 days incubation, IC50 by XLFIT, read-out: HT29_IC50_nM. The procedure: HT29 cells were purchased from Nanjing Cobioer Biosciences Co., Ltd.; RPMI-1640 medium, fetal bovine serum, Trypsin-EDTA (0.25%), 96-well plates, and CyQuant reagents were purchased from ThermoFisher (USA); DMSO was purchased from SIGMA (USA).
Culture HT29 cells with RPMI-1640 containing 10% fetal bovine serum under the condition of 37° C. and 5% CO2. Only cells in the logarithmic growth phase can be used for the test.
Use the CyQuant reagent to detect the proliferation inhibitory activity of compounds on HT29 cells. Adjust the cell density and inoculate 100 μL per well into the 96-well plate (HT29 at 2000 cells per well), then incubate overnight under the condition of 37° C. and 5% CO2. Add compounds of various target concentrations (initial concentration of 3000 nM, 3-fold dilution, 9 concentration gradients), and make the DMSO content 0.2%. Incubate the cell plates at 37° C. and 5% CO2 for 3 days. Incubate with CyQuant reagent for 1 h, read the plate by Envision, and calculate IC50 using XLFIT.

Take `O=C(Nc1cc2cccnc2c(N2CCC(F)(F)CC2)n1)c1cc(F)c(NS(=O)(=O)CCO)cc1N1CCC2(CC1)CC2` [Example 45, N-(8-(4,4-difluoropiperidin-1-yl)-1,7-naphthyridin-6-yl)-5-fluoro-4-((2-hydroxyethyl)sulfonamide)-2-(6-azaspiro[2.5]octan-6-yl)benzamide]: the values for the pIC50 (in assay [1]; in the assay with OVCAR3 cells; in the assay on HT29 cells) were 7.55, 7.74 and 7.51, respectively.
Taken in the same sequence, the figures for `O=C(Nc1cc2cccnc2c(N2CCC(F)(F)CC2)n1)c1c(F)cc(NS(=O)(=O)CCO)cc1N1CCC2(CC1)CC2` [Example 46, N-(8-(4,4-difluoropiperidin-1-yl)-1,7-naphthyridin-6-yl)-2-fluoro-4-((2-hydroxyethyl)sulfonamido)-6-(6-azaspiro[2.5]octan-6-yl)benzamide] were 7.41, 7.92 and 7.85.
Taken in the same sequence, the figures for `C[C@@H]1CN(c2nc(NC(=O)c3ccc(NS(=O)(=O)CCO)cc3N3CCC4(CC3)CC4)cc3cccnc23)CCO1` [Example 47] were 7.41, 7.32 and 7.40.
In the same order, the values of `CN1CCN(c2nc(NC(=O)c3ccc(NS(=O)(=O)CCO)cc3N3CCC4(CC3)CC4)cc3cccnc23)CC1` [Example 48] are 6.97, 6.63 and 6.44.
Consider `O=C(Nc1cc2cccnc2c(N2CCN(CC(F)(F)F)CC2)n1)c1ccc(NS(=O)(=O)CCO)cc1N1CCC2(CC1)CC2` [Example 49, 4-(2-hydroxyethylsulfonamido)-2-(6-azaspiro[2.5]octan-6-yl)-N-(8-(4-(2,2,2-trifluoroethyl)piperazin-1-yl)-1,7-naphthyridin-6-yl)benzamide], for which the pIC50 was 5.91 in assay [1], 5.87 in the assay with OVCAR3 cells and 5.85 in the assay with HT29 cells.
Taken in the same sequence, the figures for `Cc1ccc2cc(NC(=O)c3ccc(NS(=O)(=O)CCO)cc3N3CCC4(CC3)CC4)nc(N3CCC(F)(F)CC3)c2n1` [Example 51, N-(8-(4,4-difluoropiperidin-1-yl)-2-methyl-1,7-naphthyridin-6-yl)-4-(2-hydroxyethylsulfonamido)-2-(6-azaspiro[2.5]octan-6-yl)benzamide] were 6.34, 6.41 and 6.41.
In the same order, the values of `COc1ccc2cc(NC(=O)c3ccc(NS(=O)(=O)CCO)cc3N3CCC4(CC3)CC4)nc(N3CCC(F)(F)CC3)c2n1` [Example 52, N-(8-(4,4-difluoropiperidin-1-yl)-2-methoxy-1,7-naphthyridin-6-yl)-4-(2-hydroxyethylsulfonamido)-2-(6-azaspiro[2.5]octan-6-yl)benzamide] are 6.83, 7.08 and 7.04.
Taken in the same sequence, the figures for `Nc1ccc2cc(NC(=O)c3ccc(NS(=O)(=O)CCO)cc3N3CCC4(CC3)CC4)nc(N3CCC(F)(F)CC3)c2n1` [Example 53, N-(2-amino-8-(4,4-difluoropiperidin-1-yl)-1,7-naphthyridin-6-yl)-4-(2-hydroxyethylsulfonamido)-2-(6-azaspiro[2.5]octan-6-yl)benzamide] were 7.03, 8.40 and 8.22.
With `O=C(Nc1cc2ccc(O)nc2c(N2CCC(F)(F)CC2)n1)c1ccc(NS(=O)(=O)CCO)cc1N1CCC2(CC1)CC2` [Example 54, 2-{6-azaspiro[2.5]octan-6-yl}-N-[8-(4,4-difluoropiperidin-1-yl)-2-hydroxy-1,7-naphthyridin-6-yl]-4-(2-hydroxyethanesulfonamido)benzamide], the pIC50 in assay [1] was 7.57; with OVCAR3 cells, 8.22; with HT29 cells, 7.74.
Taken in the same sequence, the figures for `O=C(Nc1cc2ccccc2c(N2CCC(F)(F)CC2)n1)c1ccc(NS(=O)(=O)CCO)cc1N1CCC2(CC1)CC2` [Example 55] were 6.60, 6.95 and 7.05.
`O=C(Nc1cc2ccncc2c(N2CCC(F)(F)CC2)n1)c1ccc(NS(=O)(=O)CCO)cc1N1CCC2(CC1)CC2` [Example 56]: the pIC50 in assay [1] was 7.47; in the assay with OVCAR3 cells, 7.92; in the assay on HT29 cells, 7.89.
Taken in the same sequence, the figures for `O=C(Nc1cc2cncnc2c(N2CCC(F)(F)CC2)n1)c1ccc(NS(=O)(=O)CCO)cc1N1CCC2(CC1)CC2` [Example 58] were 7.49, 7.92 and 7.77.
Consider `O=C(Nc1cc2nccnc2c(N2CCC(F)(F)CC2)n1)c1ccc(NS(=O)(=O)CCO)cc1N1CCC2(CC1)CC2` [Example 59], for which the pIC50 in assay [1] is 7.42; with OVCAR3 cells, 7.85; in the assay on HT29 cells it was 7.66.
Taken in the same sequence, the figures for `COc1cc2cc(NC(=O)c3ccc(NS(=O)(=O)CCO)cc3N3CCC4(CC3)CC4)nc(N3CCC(F)(F)CC3)c2nn1` [Example 60, N-(8-(4,4-difluoropiperidin-1-yl)-3-methoxypyrido[3,4-c]pyridazin-6-yl)-4-(2-hydroxyethylsulfonamido)-2-(6-azaspiro[2.5]octan-6-yl)benzamide] were 7.18, 7.74 and 7.89.
In the same order, the values of `O=C(Nc1cc2cc(O)nnc2c(N2CCC(F)(F)CC2)n1)c1ccc(NS(=O)(=O)CCO)cc1N1CCC2(CC1)CC2` [Example 61, 2-{6-Azaspiro[2.5]octan-6-yl}-N-[8-(4,4-difluoropiperidin-1-yl)-3-hydroxypyrido[3,4-c]pyridazin-6-yl]-4-(2-hydroxyethanesulfonamido)benzamide] are 7.82, 7.13 and 6.95.
Taken in the same sequence, the figures for `Nc1cc2cc(NC(=O)c3ccc(NS(=O)(=O)CCO)cc3N3CCC4(CC3)CC4)nc(N3CCC(F)(F)CC3)c2nn1` [Example 62, N-[3-amino-8-(4,4-difluoropiperidin-1-yl)pyrido[3,4-c]pyridazin-6-yl]-2-{6-azaspiro[2.5]octan-6-yl}-4-(2-hydroxyethanesulfonamido)benzamide] were 7.55, 7.89 and 7.92.
As for `O=C(Nc1cc(N2CCC(F)(F)CC2)c2ncccc2c1)c1ccc(NS(=O)(=O)CCO)cc1N1CCC2(CC1)CC2` [Example 63], the pIC50 in assay [1] is 7.46; in the assay on OVCAR3 cells, 7.96; in the assay with HT29 cells, 7.82.
Taken in the same sequence, the figures for `Cc1ccc2cc(NC(=O)c3ccc(NS(=O)(=O)CCO)cc3N3CCC4(CC3)CC4)cc(N3CCC(F)(F)CC3)c2n1` [Example 64] were 6.94, 7.12 and 7.09.
In the same order, the values of `COc1ccc2cc(NC(=O)c3ccc(NS(=O)(=O)CCO)cc3N3CCC4(CC3)CC4)cc(N3CCC(F)(F)CC3)c2n1` [Example 65, N-(8-(4,4-difluoropiperidin-1-yl)-2-methoxyquinolin-6-yl)-4-(2-hydroxyethylsulfonamide)-2-(6-azaspiro[2.5]octan-6-yl)benzamide] are 6.63, 6.38 and 6.43.
Taken in the same sequence, the figures for `O=C(Nc1cc(N2CCC(F)(F)CC2)c2nc(O)ccc2c1)c1ccc(NS(=O)(=O)CCO)cc1N1CCC2(CC1)CC2` [Example 66] were 7.64, 7.46 and 7.10.
As for `Nc1ccc2cc(NC(=O)c3ccc(NS(=O)(=O)CCO)cc3N3CCC4(CC3)CC4)cc(N3CCC(F)(F)CC3)c2n1` [Example 67], the results for the pIC50 (in assay [1]; in the assay on OVCAR3 cells; with HT29 cells) were 7.28, 8.15 and 7.89, respectively.
On to `N#Cc1ccc2cc(NC(=O)c3ccc(NS(=O)(=O)CCO)cc3N3CCC4(CC3)CC4)cc(N3CCC(F)(F)CC3)c2n1` [Example 68, N-(2-cyano-8-(4,4-difluoropiperidin-1-yl)quinolin-6-yl)-4-((2-hydroxyethyl)sulfon amido)-2-(6-azaspiro[2.5]oct-6-yl)benzamide], for which the pIC50 in assay [1] was 6.51; in the assay on OVCAR3 cells it was 6.92; in the assay on HT29 cells, 7.00.
